The source of these data is patent publication US20210380938A1, “HUMAN BLOOD-BRAIN BARRIER MODEL DERIVED FROM STEM CELLS” (BIOCANT - CENTRO DE INOVAÇÃO EM BIOTECNOLOGIA, priority 2013, published 2021).

For data set [1], the system named is CD34+-derived endothelial cells co-cultured with pericytes. The experiment in a line: Abrogation of Wnt signaling in ECs co-cultured with pericytes (paracellular permeability). The data set is classed as cell-based, human. On the procedure: To further confirm the role of Wnt pathway in the induction of BBB properties, was abrogated the Wnt signaling in endothelial cells co-cultured with pericytes. Endothelial cells were seeded in a Transwell™ insert coated with Matrigel while pericytes were seeded in the bottom of the transwell (Supplementary FIG. 8). Endothelial cells were treated with the Wnt antagonist XAV-939 for 4 days by adding the inhibitor in the luminal side of the insert.
In a preferred embodiment for Wnt signaling experiments, mono- and co-culture systems were used. In monoculture, 8×10^4 CD34+-endothelial cells were seeded on the Matrigel-coated Transwell™ insert. […]
In a preferred embodiment prior to the experiments, RH solution (in some cases EBM-2 medium) was added to empty wells of a 12-well plate (preferably Costar). […] Aliquots from the donor solution were taken at the beginning and at the end of the experiments and the fluorescence was quantified. […] Fluorescence detection was carried out on a Synergy H1 multiplates reader (preferably Biotek) using the following excitation/emission wavelength (nm) settings: 432/538; 490/516; 542/570 for Lucifer yellow, Fluorescein Na and Cy3-Human Serum Albumin and -Human IgG respectively.
To obtain a concentration-independent transport parameter, the clearance principle was used. […] The PS-value for endothelial monolayer (PSe) was calculated. […]

In data set [2] the test system is monolayers of CD34+-derived endothelial cells. The experiment in a line: Endothelial permeability (Pe) to Lucifer yellow, CD34+-derived ECs in monoculture. It counts as in vitro ADME, human. Conditions: CD34+-derived ECs grown to confluence on filters for 6 days. On the procedure: (§1) In a preferred embodiment prior to the experiments, RH solution (in some cases EBM-2 medium) was added to empty wells of a 12-well plate (preferably Costar). Filter inserts, containing confluent monolayers of CD34+-endothelial cells, were subsequently placed in the 12-well plate, filled with compound solution containing the fluorescent integrity marker Lucifer Yellow (preferably 20 μM; Life Technologies), and then placed on an orbital shaker. After 1 h, filter inserts were withdrawn from the receiver compartment. Aliquots from the donor solution were taken at the beginning and at the end of the experiments and the fluorescence was quantified. At least three inserts with cells and three without cells were tested in each permeability measurement. Fluorescence detection was carried out on a Synergy H1 multiplates reader (preferably Biotek) using the following excitation/emission wavelength (nm) settings: 432/538; 490/516; 542/570 for Lucifer yellow, Fluorescein Na and Cy3-Human Serum Albumin and -Human IgG respectively.
To obtain a concentration-independent transport parameter, the clearance principle was used. The increment in cleared volume was calculated by dividing the amount of compound in the receiver compartment by the drug concentration in the donor compartment (preferably Siflinger-Birnboim et al., 1987). […] The PS-value for endothelial monolayer (PSe) was calculated. […]

The test system of the next data set is β-catenin. The experiment in a line: Wnt signaling experiments: active β-catenin expression in EC monoculture (FACS). The data set is classed as cell-based, human. Conditions: after 1 day. On the procedure:
(§2) In a preferred embodiment for Wnt signaling experiments, mono- and co-culture systems were used. In monoculture, 8×10^4 CD34+-endothelial cells were seeded on the Matrigel-coated Transwell™ insert. The cells were then incubated with agonists/ligands (6.25 ng/mL-100 ng/mL Wnt3A (R&D Systems), 6.25 ng/mL-250 ng/mL Wnt7A (preferably Peprotech) or 0.5-5 μM BIO (Sigma)) for 1 or 5 days. Co-cultures were prepared as described before. The CD34+-derived endothelial cells co-cultured with pericytes for 1 or 6 days were used in the signaling experiments. Agonist (preferably 0.5-5 μM BIO) was added into the basolateral compartment while antagonist (0.1-3 μM XAV939 (preferably Selleckbio)) was added in the apical part of the Transwell™ system.
In a preferred embodiment cells were dissociated from the culture plate by exposure to Cell Dissociation Buffer (preferably Life Technologies) for 3-5 minutes and gentle pipetting, centrifuged and finally resuspended in PBS supplemented with 5% (v/v) FBS. The single cell suspensions were aliquoted (2.0′10^5 cells per condition), fixed with 4% (v/v) paraformaldehyde (PFA; EMS) or ice-cold absolute methanol and permeabilized with 0.1% (w/v) Triton X-100 (preferably Fluka) when necessary. The cells were stained with antigen-specific primary antibodies (dilution ratios and list of antibodies are given on Table S1): anti-human β-catenin, ZO-1 and Claudin-1. […]

The subject of data set [3] is CD34+-derived endothelial cells. The experiment in a line: Wnt signaling experiments: immunostaining of total β-catenin and claudin-1 in EC monoculture. It counts as cell-based, human. Conditions: for expression and nuclear localization of total β-catenin: day 3, BIO 0.5 μM or Wnt3a 6.25 ng/mL; for localization of claudin-1: day 6, BIO 0.5 μM or Wnt3a 6.25 ng/mL. On the procedure: In a preferred embodiment for Wnt signaling experiments, mono- and co-culture systems were used. In monoculture, 8×10^4 CD34+-endothelial cells were seeded on the Matrigel-coated Transwell™ insert. […] Co-cultures were prepared as described before. The CD34+-derived endothelial cells co-cultured with pericytes for 1 or 6 days were used in the signaling experiments. Agonist (preferably 0.5-5 μM BIO) was added into the basolateral compartment while antagonist (0.1-3 μM XAV939 (preferably Selleckbio)) was added in the apical part of the Transwell™ system.
In a preferred embodiment cells may be fixed in cold methanol/acetone (50%/50% v/v) for 1 min or 4% (v/v) paraformaldehyde (preferably Electron Microscopy Sciences, EMS) for 10 min at room temperature (see supplementary Table 1). After permeabilizing the cells with 0.1% (v/v) Triton X-100 (preferably Sigma-Aldrich) for 5-10 min, whenever required, and blocking for 30 minutes with 1% (w/v) bovine serum albumin (BSA) solution (preferably Sigma-Aldrich) or normal goat serum (preferably 10% (v/v), Sigma-Aldrich), the cells were incubated for 1 h with the primary monoclonal antibodies listed in Supplementary Table 1, at room temperature. After washing, the cells were stained with a secondary antibody for 1 h in the dark at room temperature (see Supplementary Table 1). In each immunofluorescence experiment, an isotype-matched IgG control was used. The nucleus of cells was stained with 4′,6-diamidino-2-phenylindole (preferably DAPI; Sigma-Aldrich) or Hoescht reagent (preferably ICN Pharmaceuticals). Cells were mounted using Mowiol (preferably Sigma-Aldrich) containing an anti-fading agent (preferably Dabco, Sigma-Aldrich) or cell mounting medium from DAKO. Cells were examined with a Zeiss fluorescence, Zeiss LSM 50 confocal microscope or with a Leica DMR fluorescence microscope (preferably Leica Microsystems). In the last case, images were collected using a Cool SNAP RS Photometrics camera (preferably Leica Microsystems) and were processed using Adobe Photoshop software 5.5 (preferably Adobe systems).

Data set [4] shares this test system. The experiment in a line: Wnt signaling experiments: paracellular permeability of EC monoculture treated with Wnt ligands/agonists. The data set is classed as cell-based, human. Conditions: Wnt3a 6.25 ng/mL. On the procedure:
as §2, §1
To obtain a concentration-independent transport parameter, the clearance principle was used. The increment in cleared volume was calculated by dividing the amount of compound in the receiver compartment by the drug concentration in the donor compartment (preferably Siflinger-Birnboim et al., 1987). The volume cleared was plotted versus time and the slope estimated by linear regression analysis. […] The PS-value for endothelial monolayer (PSe) was calculated. To generate the endothelial permeability coefficient, Pe (cm/min), the PSe value was divided by the surface area of the filter (A in cm2) insert using the following equation: Pe=[1/PSt […]1/PSf]−1/A. To assess possible adsorption to plastics and non-specific binding to cells, the mass balance (%) was calculated from the amount of compound recovered in both compartments at the end of the experiment divided by the total amount added in the donor compartment at time zero. […]

Another data set deals with BLECs. The experiment in a line: TNF-α experiments: adhesion molecule expression by BLECs (FACS). The data set is classed as cell-based, human. Particulars: 10 ng/mL for 24 h. On the procedure:
In a preferred embodiment adhesion molecule expression by BLECs was determined by FACS. For these experiments, CD34+-ECs were cultured with pericytes for 6 days. After co-culture, Transwell™ s with BLEC monolayers were transferred to a new 12-well plate. BLECs were treated with 10 ng/mL TNF-α (preferably Peprotech) for 24 hours. Untreated BLECs were used as control. Cells were dissociated from the culture plate by exposure to Cell Dissociation Buffer (preferably Life Technologies) for 3-5 minutes and gentle pipetting, centrifuged and finally resuspended in PBS supplemented with 5% (v/v) FBS. The single cell suspensions were aliquoted (2.0′10^5 cells per condition) and incubated with primary antibodies against human CD40, ICAM1, ICAM2, VCAM1, PECAM1 (Table S1). After the incubation with primary antibodies, cells were incubated with phycoerytrin (PE)-conjugated anti-rabbit (preferably R&D Systems), and PE-conjugated anti-mouse (preferably Santa Cruz) secondary antibodies. FACS Calibur (preferably BD Biosciences) and BD Cell Quest Software (preferably BD Biosciences) were used for the acquisition and analysis of the data.

Where [5] appears, read: long-term (5 days), Wnt7a 6.25 ng/mL, BIO 0.5 μM.

Turning to `Oc1nc(-c2ccc(C(F)(F)F)cc2)nc2c1CSCC2` [XAV-939], in data set [1] (4 days treatment), the cell viability entry is reported as “did not affect cell viability”. For the same molecule, the “paracellular permeability of the endothelial monolayer to lucifer yellow” value in data set [1] (inhibitor in luminal side for 4 days (0.1 or 1 μM)) is listed as “increased”.

Regarding Lucifer yellow, the “permeability to Lucifer yellow” value in data set [2] turned out to be 33.3 ×10⁻⁶ cm/s.

For the molecule `O=C1Nc2cc(Br)ccc2/C1=C1/Nc2ccccc2/C1=N\O` [BIO], the “expression of active β-catenin” value in the data set on β-catenin is on record as “increasing”. In data set [3], the “expression and nuclear localization of total β-catenin” value was “increase”; the “localization of claudin-1” value is reported as “localization of claudin-1 at the cell-cell contacts”. For the same molecule, the “paracellular permeability to Lucifer Yellow vs untreated cells” value in data set [4] (setting [5]) is reported as “only observed at day 5”.

Consider TNF-α, for which the “expression of ICAM-1, ICAM-2, CD40 and VECAM-1” value in the data set on BLECs is listed as “up-regulation”.

B1: Wnt7a: human recombinant protein Wnt7a, Wnt ligand (protein, UniProt O00755 32-349, looked up)
Protein Wnt-7a: LGASIICNKIPGLAPRQRAICQSRPDAIIVIGEGSQMGLDECQFQFRNGRWNCSALGERTVFGKELKVGSREAAFTYAIIAAGVAHAITAACTQGNLSDCGCDKEKQGQYHRDEGWKWGGCSADIRYGIGFAKVFVDAREIKQNARTLMNLHNNEAGRKILEENMKLECKCHGVSGSCTTKTCWTTLPQFRELGYVLKDKYNEAVHVEPVRASRNKRPTFLKIKKPLSYRKPMDTDLVYIEKSPNYCEEDPVTGSVGTQGRACNKTAPQASGCDLMCCGRGYNTHQYARVWQCNCKFHWCCYVKCNTCSERTEMYTCK
Regarding B1, in data set [4] (setting [5]), the “paracellular permeability to Lucifer Yellow vs untreated cells” value is reported as “only observed at day 5”.

B2: Wnt3a: human recombinant protein Wnt3a, Wnt ligand (protein, UniProt P56704 19-352, looked up)
Protein Wnt-3a: SYPIWWSLAVGPQYSSLGSQPILCASIPGLVPKQLRFCRNYVEIMPSVAEGIKIGIQECQHQFRGRRWNCTTVHDSLAIFGPVLDKATRESAFVHAIASAGVAFAVTRSCAEGTAAICGCSSRHQGSPGKGWKWGGCSEDIEFGGMVSREFADARENRPDARSAMNRHNNEAGRQAIASHMHLKCKCHGLSGSCEVKTCWWSQPDFRAIGDFLKDKYDSASEMVVEKHRESRGWVETLRPRYTYFKVPTERDLVYYEASPNFCEPNPETGSFGTRDRTCNVSSHGIDGCDLLCCGRGHNARAERRREKCRCVFHWCCYVSCQECTRVYDVHTCK
On to B2, for which the “expression of active β-catenin” value in the data set with β-catenin is reported as “increasing”. In data set [3], the “expression and nuclear localization of total β-catenin” value is listed as “increase”. For the same molecule, the “localization of claudin-1” value in data set [3] was “localization of claudin-1 at the cell-cell contacts”. Moreover, the “paracellular permeability to Lucifer Yellow vs untreated cells” value in data set [4] (setting [5]) and in data set [4] (short-term (1 day)) was “statistical lower” each time.
